Structures are written as SMILES. The source made the active and inactive calls.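 How the source made its calls: active means displacement of at least 50% at 20 µM, with a fluorescence ratio check between 0.3 and a set limit; inactive means the rest.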

For orientation: IC50 means the concentration needed to halve the response being measured.

In the assay the target is E3 ubiquitin-protein ligase SIAH1 (Homo sapiens) (UniProt Q8IUQ4). The assay is described as follows: Siah-1 peptide-binding antagonists, primary screen, biochemical, fluorescence polarization, rhodamine-plectin, uHTS (AID 1817). The conditions noted are these: Siah-1 / rhodamine-plectin peptide fluorescence polarization. (Fluorescence polarisation rises when a labelled molecule tumbles more slowly, as on binding a larger partner.)
Chain of E3 ubiquitin-protein ligase SIAH1 (Homo sapiens) (Q8IUQ4 whole entry, looked up): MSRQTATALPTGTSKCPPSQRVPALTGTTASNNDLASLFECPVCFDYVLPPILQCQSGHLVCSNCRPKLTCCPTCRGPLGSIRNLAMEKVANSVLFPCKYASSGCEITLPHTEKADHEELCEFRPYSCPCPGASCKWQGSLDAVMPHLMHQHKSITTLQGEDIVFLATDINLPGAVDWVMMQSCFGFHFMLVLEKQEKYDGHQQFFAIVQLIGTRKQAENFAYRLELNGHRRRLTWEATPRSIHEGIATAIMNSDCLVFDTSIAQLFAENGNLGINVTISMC
`Oc1ccc(N=Cc2sc3ccccc3c2Cl)cc1`: the IC50 result is “inactive”. Then `Cc1cc(Cl)ccc1NC(=O)CN1CCC(C(O)(c2ccccc2)c2ccccc2)CC1`, with > 200 µM (inactive). Then `COC/C=C/C1=CC2=CC(=O)C(C)(OC(=O)c3ccco3)C(=O)C2=CO1` (stereo not given), with “inactive”; and `COc1ccc(CNC(=S)Nc2cc(OC)ccc2OC)cc1`, with > 200 µM (inactive); and `c1ccc(C(c2ccccc2)N2CCN(C(c3ccccn3)c3nnnn3C3CCCC3)CC2)cc1` (stereo not given), with > 200 µM (inactive). Then `Cc1c(Cc2ccccc2)c(=O)oc2c(C)c(OCC(=O)N[C@@H](Cc3ccccc3)C(=O)O)ccc12`, with “inactive”; and `Cc1ccc2c(c1)N(CC(=O)NCCc1ccc(Cl)cc1)C(=O)c1cccnc1O2`, with > 200 µM (inactive); and `Cc1ccc(NC(=O)CCC(=O)NNC(=O)c2ccccc2[N+](=O)[O-])c(C)c1`, with > 200 µM (inactive).

Regarding `CCOC(=O)C1(C)C=C(Nc2ccc(O)cc2)C(=O)N1c1ccc(O)cc1` (stereo not given), the IC50 is > 200 µM (inactive).

Regarding `O=C(/C=C/c1ccco1)OCc1nnc(-c2ccccc2)o1`, the IC50 was > 200 µM (inactive). Under `Cc1ccccc1NC(=O)CN1C(=O)N/C(=C\c2ccccc2OCc2ccc(C(=O)O)cc2)C1=O` stands 11.5 µM. Take `COc1ccc(C(C(=O)NCc2ccccc2)N(Cc2ccco2)C(=O)c2cnccn2)cc1` (stereo not given): the IC50 is > 200 µM (inactive). Consider `NS(=O)(=O)c1ccc(NC(=O)c2cccc(N3C(=O)c4ccccc4C3=O)c2)cc1`, for which the IC50 result is “inactive”. Under `O=C1C=C(NCc2ccccc2)c2ccccc2C1=O` stands > 200 µM (inactive); under `NS(=O)(=O)c1ccc(NS(=O)(=O)c2ccc(NC(=O)c3ccc(-c4ccccc4)cc3)cc2)cc1`, 1.56 µM. As for `CCCCn1c(NS(=O)(=O)c2ccccc2)c(C(=O)OCC)c2nc3ccccc3nc21`, the IC50 was > 200 µM (inactive). Under `Cc1cc(C)n2ncc(C(=O)Nc3ccc4c(c3)OCO4)c2n1` stands > 200 µM (inactive). Under `CC(NC(=O)Nc1ccc(O)cc1)(C(F)(F)F)C(F)(F)F` stands > 200 µM (inactive).

For the compound `C=CCc1cccc2cc(C(=O)Nc3ccc(CC(=O)O)cc3)c(=O)oc12`, the IC50 is 17.3 µM.

As for `O=C(O)CCCCN1C(=O)/C(=C\c2ccc(OCc3ccccc3)c(OCc3ccccc3)c2)SC1=S`, the IC50 is > 200 µM (inactive).

`CC(C)COc1ccc(-c2nn(-c3ccccc3)cc2/C=C2/SC(=S)N(CC(=O)O)C2=O)cc1`: the IC50 was > 200 µM (inactive).

For `COC(=O)C1CC(=O)N(c2ccc(OCc3ccccc3Cl)cc2)C1` (stereo not given), the IC50 was > 200 µM (inactive). Then `COc1cc(/C=C2/SC(=S)N(Cc3ccccc3)C2=O)cc(Cl)c1O`, with > 200 µM (inactive). Then `CCCCn1c(NC(=O)c2ccco2)c(S(=O)(=O)c2ccc(C)cc2)c2nc3ccccc3nc21`, with > 200 µM (inactive); and `Cc1ccc(C(=O)NC2CC3CCCC(C2)N3C(=O)NC2CCCCC2)cc1` (stereo not given), with > 200 µM (inactive). Turning to `O=S(=O)(Nc1nc2ccccc2nc1Nc1ccc(N2CCOCC2)cc1)c1cc(Cl)ccc1Cl`, the IC50 is > 200 µM (inactive).

As for `Cc1cc(C)nc(N=Nc2c(O)n(Cc3ccc(Cl)cc3)c3ccccc23)n1`, the IC50 is > 200 µM (inactive). Under `O=C(O)CCCNc1cc(N2CCN(C(=O)c3ccco3)CC2)c2noc3c2c1C(=O)c1ccccc1-3` stands 4.21 µM; under `CCn1c(O)c(C=Nc2ccc(N3CCOCC3)cc2)c(=O)n(CC)c1=S`, > 200 µM (inactive); under `CC(=O)c1ccc(S(=O)(=O)Nc2ccc(-c3ccc4nnc(C)n4n3)cc2)cc1`, > 200 µM (inactive). Then `CC12CCC(C(=O)NCc3ccc(Cl)cc3)(OC1=O)C2(C)C` (stereo not given), with > 200 µM (inactive); and `CCC1=Nc2cc(C(=O)O)ccc2Sc2ccccc21`, with > 200 µM (inactive).

`N#C/C(=C\c1c(F)cccc1Cl)C(=O)NC1CC1`: the IC50 was > 200 µM (inactive). Consider `COc1cc(/C=C(\C#N)c2nc3ccccc3[nH]2)ccc1OC(=O)c1ccco1`, for which the IC50 is > 200 µM (inactive). Under `O=C(Nc1ccc(Cl)cc1)OCc1cn(-c2ccccc2)nn1` stands > 200 µM (inactive); under `CC1CCN(C(=O)C2CCC(C)(C(=O)O)C2(C)C)CC1` (stereo not given), > 200 µM (inactive); under `CCC(C)N1C(=O)/C(=C/c2c(NCCCOC(C)C)nc3c(C)cccn3c2=O)SC1=S` (stereo not given), > 200 µM (inactive). Consider `CS(=O)(=O)N1CCN(c2ccc([N+](=O)[O-])c(SCc3ccco3)c2)CC1`, for which the IC50 is > 200 µM (inactive).

As to `Cc1ccccc1-c1nc2c3ccccc3nc(=S)n2[nH]1`, the IC50 was > 200 µM (inactive). Then `O=C(Nc1ccc(Oc2ccsc2C(=O)O)cc1)c1ccccc1F`, with > 200 µM (inactive); and `CCN(CC)CCOC(=O)c1ccc(N/C=C(/C#N)c2nc(-c3cc4ccccc4oc3=O)cs2)cc1`, with 11.2 µM.

As for `N#CC1C=Cc2ccccc2N1C(=O)c1ccccc1` (stereo not given), the IC50 is > 200 µM (inactive). Under `Cc1ccc(OCCCN2CCOCC2)cc1` stands > 200 µM (inactive). Under `Cc1c(C(=O)O)sc2nc(CSc3ncc(C(F)(F)F)cc3Cl)[nH]c(=O)c12` stands > 200 µM (inactive); under `COC(=O)C1C=C2c3cccc4[nH]cc(c34)CC2N(C)C1` (stereo not given), “inactive”.

For the origin of these results see PubChem BioAssay AID1817 (Sanford-Burnham Center for Chemical Genomics, 2009).
